Measurements reported in paper PMC11220654, “A Frog Skin‐Derived Peptide Targeting SCD1 Exerts Radioprotective Effects Against Skin Injury by Inhibiting STING‐Mediated Inflammation” (Advanced Science, 2024).
Residues, ends and D or L forms follow the SMILES beside them. No end group written: not given here. *: point of attachment. Cbz = O=C(OCc1ccccc1)*

Key:
TBK1 in HaCaT cells = experiment: TBK1 protein level and ubiquitination (Western blotting, IP); type: cell-based, human
Text: Here, we further explored whether and how RIFSP‐2 decreased the protein level of TBK1 in HaCaT cells. […] Since the degradation of TBK1 protein was reported to be regulated by either ubiquitination mediated proteasome pathway^[ [33] ^] or chaperone‐mediated autophagy signaling,^[ [34] ^] we testified the influence of the protein synthesis inhibitor (CHX) and the proteasome inhibitor (MG132) in RIFSP‐2 treated HaCaT cells. […] Then we analyzed the colocalization of TBK1 and lysosomes through confocal immunofluorescence microscopy assays. Although, administration of RIFSP‐2 induced a transient decrease of TBK1 fluorescence intensity (Figure S5K,L, Supporting Information), the co‐localization assays didn't support the increase of TBK1 location in lysosomes in RIFSP‐2 treated HaCaT cells (Figure S5M, Supporting Information).
Fig. S5 Influence of RIFSP-2 on STING activation and TBK1 expression in HaCaT […]
Communities classified based on the association network of the different metabolites in irradiated cells treated with or without RIFSP -2. (B) Structural character analysis of the lipid metabolites in irradiated cells treated with or without RIFSP -2. (C) Dose dependent induction of phosphorylation of STING and downstream TBK1 detected through western blotting. […] (M) Pearson correlation coefficient was calculated through Image J to explore the colocalization between TBK1 and […]

WS1 cells = experiment: Intracellular uptake of FITC-labeled peptides (confocal microscopy, flow cytometry); type: cell-based
Text: (§1) Distinct from previous reports, the RIFSPs were obtained from skin tissue crude extracts but not from skin secretions. In addition, the administration of exogenous RIFSPs protected cultured skin cells, which hints that some RIFSPs may exert membrane permeability. Therefore, we synthesized FITC‐labeled RIFSPs‐2/5/9/10 and evaluated their possible intracellular uptake by skin cells. […] Glycosaminoglycans have been reported to affect the efficiency of cellular uptake of a wide range of cell penetrating peptides,^[ [27] ^] and we therefore used the competitive inhibitor heparin to investigate whether internalization of FITC‐RIFSP‐2 was dependent on recognition by glycosaminoglycans on the cell surface.
After forming electrostatic interactions with the plasma membrane, peptides principally penetrate into cells via macropinocytosis.^[ [28] ^] […]
(A) Administration of FITC-labeled RIFSPs to WS1 cells and identification of the membrane […] of RIFSP-2 through confocal microscopy. (B)Time- and dose-dependent uptake of FITC-RIFSP-2 by WS1 cells detected through confocal microscopy and flow cytometry analysis. […] Conditioned medium from WS1 cells pretreated with RIFSP-2 increased MMP of irradiated HaCaT cells and vice versa, detected by JC-1(G and H) and Mito-Tracker Red CMXRos (I) staining (n = 4, ** P < 0.01).

skin tissues of mice = settings: mouse, in vivo, sc
HaCaT cells = experiment: Intracellular uptake of FITC-labeled peptides (confocal microscopy, flow cytometry); type: cell-based
Text: as §1
Figure 2 Macropinocytosis‐mediated uptake of radiation‐induced frog skin peptide 2 (RIFSP‐2) protects skin cells against radiation‐induced injury. […] B) Time‐ and dose‐dependent uptake of FITC‐RIFSP‐2 by HaCaT cells detected through flow cytometry analysis. […] The effect of RIFSP‐2 on D) cell proliferation, E) cell cycle, and F,G) senescence, as detected by colony formation assay, propidium iodide (PI) staining and SA‐β‐Gal staining analysis, respectively. […] M) Effect of RIFSP‐2 on the homeostasis of actin filaments in irradiated skin cells, as detected by rhodamine phalloidin and G‐actin staining assays. […]

[1] = test system: STING signaling in HaCaT cells; experiment: STING downstream signals and inflammatory factors with LPC (18:1) (Western blotting, ELISA); type: cell-based, human
Description: Since RIFSP‐2 directly restrained SCD1 and modulated neutral lipid droplets, we further investigated whether alteration of lipid profiles by RIFSP‐2 interfered with STING activation in response to irradiation. […] Furthermore, we investigated the influence of RIFSP‐2 on STING‐regulated inflammatory factors, including IFN‐β, TNF‐α, IL‐1, and IL‐6. […] Nevertheless, significant increase of IFN‐β production in acute stage and TNF‐α production in relative late stage (48 h) in macrophage cells were detected through both Western blotting and ELISA assays (Figure 4F,G).
2.6 Protein-protein interaction analysis
The identified databases of specific binding proteins for RIFSP-2 and STING in irradiated skin cells were merged and the confidence score of interactions >0.7 were regarded as high confidence in alinement of STRING database. Finally, the visualization of this protein-protein interaction was realized through the Cytoscape software.
2.7 Assessment of cytokines by Elisa
HaCaT and RAW264.7 cells were cultivated in 6 cm plates at a density of 5 × 10^5 cells/mL with 2 mL medium per well and treated with LPC (18:1) plus RIFSP-2 for 24 h. 6 or 48 h after irradiation, cytokine concentrations in the […] were measured by ELISA according to the instructions provided by the manufacturer (NEOBIOSCIENCE). The absorbance was detected using a BioTek reader (Synergy HTX, Winooski, USA) at 450 nm. […]

CCN(CC)CCCC(C)Nc1ccnc2cc(Cl)ccc12 (stereo not drawn) [CQ, chloroquine]
influence on TBK1 degradation caused by RIFSP-2 (TBK1 in HaCaT cells; 10 nM chloroquine 4 hours, then 15 µM RIFSP-2 24 hours): little influence of lysosomes in TBK1 degradation

C=C1[C@@H](C)[C@H]2[C@H](Cc3ccccc3)NC(=O)[C@]23[C@H](OC(C)=O)/C=C/[C@@](C)(O)C(=O)[C@@H](C)C/C=C/[C@H]3[C@@H]1O [CytD, cytochalasin D]
effect on WS1 cells (WS1 cells; after CytD administration in the uptake study): swelled and subsequently died in 30 min

CC(C)C[C@@H](C=O)NC(=O)[C@H](CC(C)C)NC(=O)[C@H](CC(C)C)NC(=O)OCc1ccccc1 [MG132] (Cbz-Leu-Leu-Leu-aldehyde)
influence on the reduction of TBK1 protein level by RIFSP-2 (TBK1 in HaCaT cells; 24 h after RIFSP-2 treatment (15 µM), MG132 10 µM pretreated 2 hours): abrogated the reduction of TBK1 protein level

LAAGGYDVDKNNSRLK [RIFSP‐2]
adverse effects (skin tissues of mice): did not cause obvious adverse effects | histological examination of the skin tissues (skin tissues of mice): no significant differences | uptake in HaCaT cells (HaCaT cells): time‐ and dose‐dependent manner | time at which the FITC signal could be detected (WS1 cells): as soon as one hour after administration

LPC (18:1)
accumulation of TGF-β, TNF-α, IL-1 and IL-6 ([1]; keratinocytes but not macrophage cells, Western blotting): aggravated the accumulation | phosphorylation of STING and TBK1 ([1]; supplementation, dose-dependent manner (Figure S5C)): elevated the phosphorylation of both STING and its substrate TBK1
